Measurements taken from EP0199262A2, “Fluorinated benzyl triazole compounds” (CIBA-GEIGY AG, priority 1985, dated 1986).

Test system: durch Elektroschock ausgelöste Konvulsionen
Experiment: Protection against electroshock-induced convulsions, rat
Type: in vivo, Ratte
Conditions: po, 1 h, read-out: effektive Dosis ED50
Method: (§1) Die neuen Verbindungen besitzen wertvolle pharmakologische Eigenschaften, insbesondere eine ausgeprägte antikonvulsive Wirksamkeit, die sich beispielsweise an der Maus anhand eines deutlichen Metrazol-Antagonismus im Dosisbereicn von etwa 30 bis 300 mg/kg p.o. sowie an Maus und Ratte anhand einer ausgeprägten Schutzwirkung gegen durch Elektroschock ausgelöste Konvulsionen im Dosisbereich von etwa 1 bis etwa 50, in den meisten Fällen von etwa 1 bis etwa 25 mg/kg p.o. zeigen lässt. In diesem Modell wurden beispielsweise die folgenden Werte für die effektive Dosis ED50 in mg/kg p.o. erhalten (1 h Vorapplikation): • 1-(2,6-Difluorbenzyl)-1 H-1,2,3-triazof-4-carboxamid: 17 (Maus bzw. 8 (Ratte); • 1-(o-Fluorbenzyl)-1H-1,2,34dazol-4-carboxamid: 17 (Maus, Ratte); • 1-(2,6-Difluorbenzyl)-1 H-1,2,3-triazol-4,5-dicarboxamid: 4 (Maus, Ratte); • 1-(6-Chlor-2-fluor-phenyl)-1 H-1,2,3-triazol-4,5-dicarboxamid: 7 (Maus) bzw. 10 (Ratte), • 1-(o-Fluorphenyl)-1H-1,2,3-triazof-4,5-dicarboxamid: 6 (Maus) bzw. 10 (Ratte); • 1-(6-Chlor-2-fluar-phenyl)-1H-1,2,3-triazol-4-carboxamid: 11 (Maus); 1-(2,5-Difluorbenzyl)-1H-1,2,3-triazol-4,5-dicarboxamid: 6 (Maus).
(§2) Die erfindungsgemäss bereitgestellten fluorierten 1-(a-Phenylalkyl)-1H-1,2,3-triazolverbindungen der Formel (I) weisen ihren als antikonvulsiv wirksam bekannten Chloranalogen gegenüber den Vorteil einer verbesserten Wirksamkeit auf. So ergaben sich in obigem Modell z.B. folgende Ed50-Werte: • 1-(o-Chlorbenzyl)-1 H-1,2,3-triazol-4-carboxamid: 26 (Maus) bzw. 25 (Ratte) und • 1-(o-Chlorbenzyl)-1 H-1,2,3-triazol-4,5-dicarboxamid: 40 (Maus) bzw. 43 (Ratte).

Question: Which ED50 does the source give for `NC(=O)c1cn(Cc2ccccc2Cl)nn1` [1-(o-Chlorbenzyl)-1 H-1,2,3-triazol-4-carboxamid, reference compound] here?
Answer: Its ED50 is 25 mg/kg.

Question: With `NC(=O)c1cn(Cc2ccccc2F)nn1` [1-(o-Fluorbenzyl)-1 H-1,2,3-triazol-4-carboxamid] as the molecule, how does the ED50 read?
Answer: Its ED50 is 17 mg/kg.

Same assay, conditions: po, Ratte, electroshock, p.o., 1 h Vorapplikation, read-out: effektive Dosis ED50

Question: With `NC(=O)c1cn(Cc2c(F)cccc2F)nn1` [1-(2,6-Difluorbenzyl)-1 H-1,2,3-triazol-4-carboxamid] as the molecule, how does the ED50 read?
Answer: Its ED50 is 8 mg/kg.

Question: With `NC(=O)c1nnn(Cc2c(F)cccc2F)c1C(N)=O` [1-(2,6-Difluorbenzyl)-1H-1,2,3-triazol-4,5-dicarboxamid] as the molecule, how does the ED50 read?
Answer: The ED50 was 4 mg/kg.

Question: How did the ED50 turn out when `NC(=O)c1nnn(Cc2c(F)cccc2Cl)c1C(N)=O` [1-(6-Chlor-2-fluor-benzyl)-1 H-1,2,3-triazol-4,5-dicarboxamid] was run?
Answer: Its ED50 is 10 mg/kg.

Question: `NC(=O)c1nnn(Cc2ccccc2Cl)c1C(N)=O` [1-(o-Chlorbenzyl)-1 H-1,2,3-triazol-4,5-dicarboxamid, reference compound] was tested. Which ED50 did it give?
Answer: The ED50 was 43 mg/kg.

Question: How did the ED50 turn out when `NC(=O)c1nnn(Cc2ccccc2F)c1C(N)=O` [1-(o-Fluorbenzyl)-1 H-1,2,3,-triazol-4,5-dicarboxamid] was run?
Answer: Its ED50 is 10 mg/kg.

Test system: durch Elektroschock ausgelöste Konvulsionen
Experiment: Protection against electroshock-induced convulsions, mouse
Type: in vivo, Maus
Conditions: po, 1 h, read-out: effektive Dosis ED50
Method: as §1, §2

Question: How did the ED50 turn out when `NC(=O)c1cn(Cc2c(F)cccc2Cl)nn1` [1-(6-Chlor-2-fluor-benzyl)-1H-1,2,3-triazol-4-carboxamid] was run?
Answer: Its ED50 is 11 mg/kg.

Question: `NC(=O)c1cn(Cc2ccccc2Cl)nn1` [1-(o-Chlorbenzyl)-1 H-1,2,3-triazol-4-carboxamid, reference compound] was tested. Which ED50 did it give?
Answer: The ED50 was 26 mg/kg.

Question: Which ED50 does the source give for `NC(=O)c1cn(Cc2ccccc2F)nn1` [1-(o-Fluorbenzyl)-1 H-1,2,3-triazol-4-carboxamid] here?
Answer: The ED50 was 17 mg/kg.

Same assay, conditions: po, Maus, electroshock, p.o., 1 h Vorapplikation, read-out: effektive Dosis ED50

Question: With `NC(=O)c1nnn(Cc2cc(F)ccc2F)c1C(N)=O` [1-(2,5-Difluorbenzyl)-1H-1,2,3-triazol-4,5-dicarboxamid] as the molecule, how does the ED50 read?
Answer: The ED50 was 6 mg/kg.

Question: With `NC(=O)c1cn(Cc2c(F)cccc2F)nn1` [1-(2,6-Difluorbenzyl)-1 H-1,2,3-triazol-4-carboxamid] as the molecule, how does the ED50 read?
Answer: The ED50 was 17 mg/kg.

Question: `NC(=O)c1nnn(Cc2c(F)cccc2F)c1C(N)=O` [1-(2,6-Difluorbenzyl)-1H-1,2,3-triazol-4,5-dicarboxamid] was tested. Which ED50 did it give?
Answer: The ED50 was 4 mg/kg.

Question: For `NC(=O)c1nnn(Cc2c(F)cccc2Cl)c1C(N)=O` [1-(6-Chlor-2-fluor-benzyl)-1 H-1,2,3-triazol-4,5-dicarboxamid], which ED50 is on record?
Answer: Its ED50 is 7 mg/kg.

Question: `NC(=O)c1nnn(Cc2ccccc2Cl)c1C(N)=O` [1-(o-Chlorbenzyl)-1 H-1,2,3-triazol-4,5-dicarboxamid, reference compound] was tested. Which ED50 did it give?
Answer: Its ED50 is 40 mg/kg.

Question: For `NC(=O)c1nnn(Cc2ccccc2F)c1C(N)=O` [1-(o-Fluorbenzyl)-1 H-1,2,3,-triazol-4,5-dicarboxamid], which ED50 is on record?
Answer: Its ED50 is 6 mg/kg.
